Series [1] in a line: Selectivity ratio of MHC for sheep RBC to MIC for Staphylococcus aureus ATCC 25923. Format: functional.
The nature of series [2]: Half life in bovine serum. Particulars: cattle. The class given is ADME, cell-free, Bos taurus.
The nature of series [3]: Selectivity ratio of HC50 for sheep RBC to MIC for Escherichia coli ATCC 25922. Format: functional.
Series [4] is described as follows: Selectivity ratio of HC50 for sheep RBC to MIC for Staphylococcus aureus ATCC 25923. The class given is functional.
A short description of series [5]: Toxicity in sheep RBC assessed as hemolytic activity at 100 uM after 1 hr. The class given is cell-based, Ovis aries, Erythrocyte. Particulars: sheep red blood cells, read-out: Activity.
A short description of series [6]: Toxicity in sheep RBC assessed as hemolytic activity after 1 hr. The class given is cell-based, Ovis aries, Erythrocyte. To be noted: sheep red blood cells.
Another series relates to Aeromonas caviae. As to the kind of experiment: Antibacterial activity against Aeromonas caviae ATCC 15648 after 48 hrs by microtiter broth dilution method. To be noted: ATCC 15648, 48 h. Format: functional. For orientation: In broth dilution the organism is exposed to a series of concentrations in liquid medium.
A further series relates to Klebsiella aerogenes. Nature of the series: Antibacterial activity against Enterobacter aerogenes ATCC 13048 after 48 hrs by microtiter broth dilution method. The class given is functional. To be noted: ATCC 13048, 48 h.
For a further series, the system named is Klebsiella oxytoca. As to the kind of experiment: Antibacterial activity against Klebsiella oxytoca CIP 7932 after 48 hrs by microtiter broth dilution method. The class given is functional. Particulars: CIP 7932, 48 h.
A further series concerns Pseudomonas aeruginosa. As to the kind of experiment: Antibacterial activity against Pseudomonas aeruginosa ATCC 27853 after 48 hrs by microtiter broth dilution method. The class given is functional. To be noted: ATCC 27853, 48 h.
A further series has as its system Salmonella enterica. Nature of the series: Antibacterial activity against Salmonella enterica ATCC 13076 after 48 hrs by microtiter broth dilution method. To be noted: ATCC 13076, 48 h. Format: functional.
The test system of a further series is Escherichia coli. As to the kind of experiment: Antibacterial activity against Escherichia coli ATCC 25922 after 48 hrs by microtiter broth dilution method. The class given is functional. To be noted: ATCC 25922, 48 h.
For the next series, the system named is Listeria monocytogenes. As to the kind of experiment: Antibacterial activity against Listeria monocytogenes SOR 100 after 48 hrs by microtiter broth dilution method. Format: functional. To be noted: SOR 100, 48 h.
A further series has as its system Staphylococcus aureus. As to the kind of experiment: Antibacterial activity against Staphylococcus aureus ATCC 25923 after 48 hrs by microtiter broth dilution method. Format: functional. Particulars: ATCC 25923, 48 h.
A further series deals with Lactococcus garvieae. As to the kind of experiment: Antibacterial activity against Lactococcus garvieae ATCC 43921 after 48 hrs by microtiter broth dilution method. Format: functional. To be noted: ATCC 43921, 48 h.
A further series deals with Micrococcus luteus. Nature of the series: Antibacterial activity against Micrococcus luteus ATCC 10240 after 48 hrs by microtiter broth dilution method. The class given is functional. To be noted: ATCC 10240, 48 h.
A further series has as its system Streptococcus equinus. Nature of the series: Antibacterial activity against Streptococcus equinus ATCC 5623 after 48 hrs by microtiter broth dilution method. The class given is functional. To be noted: ATCC 5623, 48 h.
The test system of the next series is Enterococcus faecalis. Nature of the series: Antibacterial activity against Enterococcus faecalis CIP 186 after 48 hrs by microtiter broth dilution method. Format: functional. Particulars: CIP 186, 48 h.
For another series, the system named is Priestia megaterium. Nature of the series: Antibacterial activity against Bacillus megaterium ATCC 10778 after 48 hrs by microtiter broth dilution method. Format: functional. To be noted: ATCC 10778, 48 h.
Series [7] can be described thus: Selectivity ratio of MHC for sheep RBC to MIC for Listeria monocytogenes SOR 100. Format: functional.
Series [8] can be described thus: Toxicity in sheep RBC assessed as minimal hemolytic concentration after 1 hr. The class given is cell-based, Ovis aries. Particulars: erythrocyte.
A short description of series [9]: Selectivity ratio of MHC for sheep RBC to MIC for Escherichia coli ATCC 25922. Format: functional.

Values after ≈ are worked out from the molar mass of the structure shown.

On to `N=C(N)NCCC[C@@H]1NC(=O)CN(CC2CCCCC2)NC(=O)[C@H](Cc2c[nH]c3ccccc23)NC(=O)CN(Cc2ccc(F)cc2)NC(=O)[C@H](Cc2c[nH]c3ccccc23)NC(=O)CN(CCCCN)NC1=O`, for which the Selectivity ratio in series [1] was 4; in series [3], 4; in [4], 4; in [7], 16. Besides, the half-life (as a rule, the time needed for the level to fall by half in the phase considered) in series [2] is above 2 h. The hemolysis at 1 h, 100 µM in series [5] turned out to be 2.5%. Moreover, the HC50 (in general, the concentration giving 50% haemolysis) at 1 h in series [6] was above 100 µM. Moreover, the minimum inhibitory concentration (MIC) – broadly, the least concentration at which growth counts as inhibited – in the series on Aeromonas caviae is above 100 µM; in the series with Klebsiella aerogenes it was 12.5 µM (≈ 12.8 µg/mL); in the series on Klebsiella oxytoca, 25 µM (≈ 25.5 µg/mL); against Pseudomonas aeruginosa, 50 µM (≈ 51 µg/mL); against Salmonella enterica, 25 µM (≈ 25.5 µg/mL); against Escherichia coli, 25 µM (≈ 25.5 µg/mL). Moreover, the minimum inhibitory concentration (MIC) was determined as 6.25 µM (≈ 6.38 µg/mL) with Listeria monocytogenes; 25 µM (≈ 25.5 µg/mL) with Staphylococcus aureus; 25 µM (≈ 25.5 µg/mL) with Lactococcus garvieae; 3.12 µM (≈ 3.18 µg/mL) in the series on Micrococcus luteus; 6.25 µM (≈ 6.38 µg/mL) against Streptococcus equinus; 50 µM (≈ 51 µg/mL) in the series on Enterococcus faecalis. The compound further had an MIC in the series with Priestia megaterium of 1.56 µM (≈ 1.59 µg/mL). For the same compound, the MHC in series [8] is 100 µM.
Turning to `N=C(N)NCCC[C@@H]1NC(=O)CN(CCCCN)NC(=O)CN(Cc2ccc3ccccc3c2)NC(=O)[C@H](Cc2ccccc2)NC(=O)CN(Cc2ccc3ccccc3c2)NC1=O`, the Selectivity ratio in series [9] stood at 1; in [1] it was 2; in series [3], 1; in series [4], 2. Also, the hemolysis at 1 h, 100 µM in series [5] was determined as 1%. For the same compound, in [6], the HC50 at 1 h is above 100 µM. For the same compound, the MIC was above 100 µM against Aeromonas caviae; 100 µM (≈ 87.1 µg/mL) in the series with Klebsiella aerogenes; above 100 µM in the series on Klebsiella oxytoca; 50 µM (≈ 43.6 µg/mL) against Pseudomonas aeruginosa; 100 µM (≈ 87.1 µg/mL) against Salmonella enterica; 100 µM (≈ 87.1 µg/mL) in the series on Escherichia coli. Moreover, the minimal inhibitory concentration (MIC) against Listeria monocytogenes is 25 µM (≈ 21.8 µg/mL); with Staphylococcus aureus it was 50 µM (≈ 43.6 µg/mL); in the series on Lactococcus garvieae, 100 µM (≈ 87.1 µg/mL); against Micrococcus luteus it was 6.25 µM (≈ 5.44 µg/mL); against Streptococcus equinus, 12.5 µM (≈ 10.9 µg/mL); against Enterococcus faecalis, above 100 µM. In the series with Priestia megaterium, this compound had an MIC of 3.12 µM (≈ 2.72 µg/mL).
For `CC(C)C[C@@H]1NC(=O)CN(Cc2ccc(-c3ccccc3)cc2)NC(=O)[C@H](CC(C)C)NC(=O)CN(Cc2ccc(-c3ccccc3)cc2)NC(=O)[C@H](CCCCN)NC(=O)CN(CCCCN)NC1=O`, the Selectivity ratio in series [9] worked out at 0.12; in series [1] it was 1; in series [3] it was 1.2; in series [4], 9.6. In addition, in [5], the hemolysis at 1 h, 100 µM amounted to 90%. In addition, the concentration for 50% haemolysis (HC50) at 1 h in [6] was determined as 15 µM. In addition, the MIC is above 100 µM against Aeromonas caviae; 25 µM (≈ 24.4 µg/mL) in the series with Klebsiella aerogenes; 25 µM (≈ 24.4 µg/mL) against Klebsiella oxytoca; 12.5 µM (≈ 12.2 µg/mL) in the series on Pseudomonas aeruginosa; 100 µM (≈ 97.4 µg/mL) with Salmonella enterica; 12.5 µM (≈ 12.2 µg/mL) in the series on Escherichia coli. In addition, the MIC worked out at 1.56 µM (≈ 1.52 µg/mL) in the series with Listeria monocytogenes; 1.56 µM (≈ 1.52 µg/mL) with Staphylococcus aureus; 3.12 µM (≈ 3.04 µg/mL) in the series with Lactococcus garvieae; 0.78 µM (≈ 0.76 µg/mL) against Micrococcus luteus; 1.56 µM (≈ 1.52 µg/mL) in the series with Streptococcus equinus; 6.25 µM (≈ 6.09 µg/mL) with Enterococcus faecalis. For the same compound, the MIC against Priestia megaterium was found to be 0.78 µM (≈ 0.76 µg/mL).
With `CC(C)C[C@@H]1NC(=O)CN(Cc2ccc(-c3ccccc3)cc2)NC(=O)[C@H](CCCCN)NC(=O)CN(CCCCN)NC(=O)CN(Cc2ccc(-c3ccccc3)cc2)NC1=O`, the Selectivity ratio in series [9] is 0.5; in series [1], 1; in [3], 2; in series [4], 4. The hemolysis at 1 h, 100 µM in [5] amounted to 30%. The HC50 at 1 h in series [6] was above 100 µM. Besides, the MIC is above 100 µM in the series on Aeromonas caviae; 25 µM (≈ 21.5 µg/mL) against Klebsiella aerogenes; 50 µM (≈ 43.1 µg/mL) in the series on Klebsiella oxytoca; 50 µM (≈ 43.1 µg/mL) in the series with Pseudomonas aeruginosa; 50 µM (≈ 43.1 µg/mL) against Salmonella enterica; 50 µM (≈ 43.1 µg/mL) with Escherichia coli. Moreover, the minimal inhibitory concentration (MIC) in the series on Listeria monocytogenes worked out at 12.5 µM (≈ 10.8 µg/mL); in the series with Staphylococcus aureus it was 25 µM (≈ 21.5 µg/mL); against Lactococcus garvieae, 50 µM (≈ 43.1 µg/mL); with Micrococcus luteus, 3.12 µM (≈ 2.69 µg/mL); against Streptococcus equinus, 6.25 µM (≈ 5.38 µg/mL); in the series with Enterococcus faecalis, 50 µM (≈ 43.1 µg/mL). This compound had an MIC with Priestia megaterium of 3.12 µM (≈ 2.69 µg/mL). The MHC in [8] was determined as 25 µM.
